Converted amounts (≈) assume the structure as drawn.

The record followed here is ChEMBL document CHEMBL1159220, “Additional dolabellane diterpenes from the Caribbean gorgonian octocoral Eunicea laciniata” (J Nat Prod, 1995).

This assay deals with HeLa. Description: Cytotoxicity against human HeLa cells. The assay is classed as functional, cell-based.
The compound `CC(C)=C1CC[C@@]2(C)C(=O)C[C@H](C)CC/C=C(\C)CC[C@H]12` [EDUNONE] had an IC50 of 25 µg/mL (≈ 86.7 µM).
Turning to `CC(C)=C1CC[C@@]2(C)C(=O)/C=C(/C)CC/C=C(/C)CC[C@H]12` [EDUENONE], inhibition was half-maximal at 50 µg/mL (≈ 175 µM) (IC50).
For the compound `C/C1=C/C(=O)[C@]2(C)CC(=O)[C@H](C(C)C)[C@H]2CC/C(C)=C\CC1` [EDUDIONE], the IC50 was more than 100 µg/mL.
In the case of `C=C(C)[C@@]1(O)CC[C@@]2(C)C/C=C(\C)CC/C=C(\C)CC[C@@H]21` [EDUNOL], the IC50 came out at 25 µg/mL (≈ 86.7 µM).
